Assay results: patent US12643867B2, “Compositions and uses thereof” (University of Virginia Patent Foundation, priority 2017, dated 2026)

Key:
Type in all cases: cell-based
[1] = system: recombinant DGK isoforms (total of 10); assay: JWB003 labeling in live cells (in situ); conditions: live HEK293T cells
Protocol: (§1) • 1. HEK293T cells were harvested in cold PBS. • a. Cells were transferred to Eppendorf tube. • 2. Cells were lysed via tip sonicator. • 3. Cells were fractionated into membrane and soluble fraction. • a. 100,000×G for 45 minutes at 4 degree. • b. Supernatant was separated from cell pellet. • 4. Dilute proteomes to 1 mg/mL in PBS and aliquot appropriate reaction volume (49 μL for probe only; 48 μL for competition+probe) • 5. Cells were treated with 50× inhibitor. • a. Incubated for 1Hr at 37 degree. • 6. Cells were treated with 50× Probe (JWB003). • a. Incubated for 1Hr at 37 degree. • 7. Add 6 μL of master mix to each alkyne probe-labeled sample. • a. 1 μL of 1.25 mM Rh-N3 • b. 1 μL of fresh 50 mM TCEP • c. 3 μL of 1.7 mM TBTA stock • d. 1 μL of 50 mM CuSO4 • 8. Vortex samples. • 9. Incubate at room temperature for 1 hr • 10. Quench with 17 μL of 4×SDS-PAGE loading buffer+βME and vortex tubes. • 11. Analyze 30 μL samples by SDS-PAGE immediately. [B] Labeling HEK293T Cells to Determine Target Proteins of JWB003 in Live Cells (In Situ) • 1. Complete media was removed from HEK293T cells and replaced with serum free media containing JWB003 at the appropriate final concentration • a. Cells were placed in incubator for appropriate time at 37 degree 5% CO2 • 2. Cells were washed • a. 2× warm PBS • b. 2× cold PBS • c. Harvest cells in cold PBS • 3. Cells were transferred to Eppendorf tube • 4. […]

[2] = target: T1, recombinant hDGKa (Homo sapiens, UniProt P23743); assay: JWB003 labeling in live cells (in situ); conditions: 25 μM; transfected HEK293T cells
T1 construct: expressed in transfected cells; host or cells: HEK293T
Protocol: as §1

[3] = target: T2, human PKCa (hPKCa) (Homo sapiens, UniProt P17252); assay: JWB003 labeling of C1 domain protein kinases; conditions: transfected HEK293T cells
T2 construct: expressed in transfected cells; host or cells: HEK293T
Protocol: as §1

[4] = system: A549 cells; assay: WST-1 Cell Proliferation Assay; conditions: ritanserin, ketanserin 5-50 μM; staurosporine 1 μM
Protocol: (§2) WST-1 Cell Proliferation Assays. Tumor cells were plated in transparent tissue-culture treated 96-well plates at a density of 100,000 cells/mL (A549, H1650) or 200,000 cells/mL (H82) in a volume of 100 μL per well. Cells were treated with dimethyl sulfoxide (DMSO) vehicle or inhibitors dissolved in DMSO at the indicated concentrations (final DMSO concentration of 0.5%). Cells were allowed to grow for indicated times at 37° C. under 5% CO2. Afterwards, equal parts of WST-1 developer reagent and electron mediator solution were mixed and 10 μL of the resulting solution (‘WST-1 reagent’) were added to each well. Plates were shaken in an orbital shaker for 60 s and then returned to the incubator for two hrs. Plates were again shaken followed measurement of absorbance at 450 nm. Data were normalized to DMSO-treated wells and significance values determined with one-way ANOVA.

[5] = system: H1650 cells; assay: WST-1 Cell Proliferation Assay; conditions: ritanserin, ketanserin 5-50 μM; staurosporine 1 μM
Protocol: as §2

[6] = system: H82 cells; assay: WST-1 Cell Proliferation Assay; conditions: ritanserin, ketanserin 5-50 μM; staurosporine 1 μM
Protocol: as §2

[7] = system: Bone Marrow Derived Macrophages (BMDMs), noncancerous primary cells; assay: WST-1 Cell Proliferation Assay; conditions: ritanserin highest concentration tested 50 μM; staurosporine 1 μM

T1 sequence (P23743 whole entry): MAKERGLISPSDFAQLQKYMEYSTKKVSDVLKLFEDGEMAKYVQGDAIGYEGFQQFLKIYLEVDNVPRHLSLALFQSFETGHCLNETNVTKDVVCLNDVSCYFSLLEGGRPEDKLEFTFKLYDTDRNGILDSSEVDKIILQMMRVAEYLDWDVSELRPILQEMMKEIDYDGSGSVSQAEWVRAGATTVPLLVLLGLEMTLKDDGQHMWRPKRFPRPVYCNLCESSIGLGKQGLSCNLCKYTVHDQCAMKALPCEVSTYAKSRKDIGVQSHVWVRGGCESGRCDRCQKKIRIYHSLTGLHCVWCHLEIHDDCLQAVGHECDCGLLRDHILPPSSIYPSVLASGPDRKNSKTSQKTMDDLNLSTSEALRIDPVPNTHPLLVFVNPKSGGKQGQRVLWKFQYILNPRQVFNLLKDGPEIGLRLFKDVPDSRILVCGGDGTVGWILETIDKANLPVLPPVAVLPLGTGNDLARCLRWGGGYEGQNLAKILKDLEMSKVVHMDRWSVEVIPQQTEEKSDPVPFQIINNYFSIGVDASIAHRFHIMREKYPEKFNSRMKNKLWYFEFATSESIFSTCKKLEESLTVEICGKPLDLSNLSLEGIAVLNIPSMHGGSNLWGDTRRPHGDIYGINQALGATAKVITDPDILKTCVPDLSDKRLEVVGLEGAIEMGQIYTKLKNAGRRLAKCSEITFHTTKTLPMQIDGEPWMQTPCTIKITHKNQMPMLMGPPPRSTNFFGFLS

Structure (SMILES) | labeling of recombinant DGK isoforms [1] | time at which probe labeling of hDGKa saturates [2] [min] | labeling of hPKCa [3] | cell viability (WST-1), words [4] | cell viability (WST-1), words [5] | cell viability (WST-1), words [6] | cell killing of noncancerous primary cells (WST-1), words [7]
C#CCCC(=O)NCCN1CCN(C/C=C/C(=O)N2CCC(=C(c3ccc(F)cc3)c3ccc(F)cc3)CC2)CC1 [JWB003] | effective labeling of all ten proteins in live cells | 60 | labeling of hPKCa in the membrane but not soluble fraction | – | – | – | –
CN[C@@H]1C[C@H]2O[C@@](C)([C@@H]1OC)n1c3ccccc3c3c4c(c5c6ccccc6n2c5c31)C(=O)NC4 [Staurosporine] | – | – | – | general cytotoxicity across all cells tested | general cytotoxicity across all cells tested | general cytotoxicity across all cells tested | general cytotoxicity across all cells tested
